# Measured values published in patent US20110124626A1, “BENZAZEPINE DERIVATIVES AND THEIR USE AS HISTAMINE H3 ANTAGONISTS” (TAKEDA PHARMACEUTICAL COMPANY LIMITED, priority 2008, published 2011).
# pIC50: −log10 of the molar value.
# Molecular target: T1, human H3 receptor (Homo sapiens, UniProt Q9Y5N1)
# T1 construct: expressed in transfected cells
# Experiment: In vitro H3 binding assay (3H-N-α-methyl-histamine competition binding)
# Settings: membranes of CHO-K1 cells expressing human H3 receptor; 2 nM 3H-NαMH; read-out: hH3 binding IC50
# Method: The ability of compounds to bind to the H3 receptor was determined by measuring the reduction in tritiated N-α-methyl-histamine (^3H—NαMH) binding in a competition binding assay. Changes in the levels of bound radio-label were monitored by scintillation counting with a Trilux Microbeta (Perkin Elmer).
# Membranes were prepared from CHO-K1 cells stably expressing human H3 receptor; routinely grown as monolayers in Ham's F12 medium (Invitrogen) supplemented with 10% Foetal Clone 111 (Hyclone), 500 μg/ml G418 (Invitrogen), 5 μg/ml blasticidine S (Invivogen) and […] Gentamicin (Sigma) in 5% CO2 at 37° C. Cells were grown to 80-95% confluency, rinsed once with 1×PBS (Invitrogen) and detached by incubating with 1×PBS containing 0.02% EDTA (Sigma) for 10 minutes at room temperature. Cells were collected by centrifugation at 900×g, 4° C. for 10 minutes. Cells were rinsed once with 1×PBS and re-suspended in ice cold homogenisation buffer (50 mM Tris-HCl (pH 7.4), 2.5 mM EDTA, 5 mM MgCl2, 200 mM Sucrose) at 1×10^7 cells/ml and kept on ice. Cells were homogenised on ice and debris removed by centrifugation at 500×g, 4° C. for 5 minutes. The resulting supernatant was centrifuged at 75,600×g, 4° C. for 60 minutes. Membranes were suspended in homogenisation buffer, protein concentration was determined (BCA Protein Assay kit (Pierce)), diluted to 2.2 mg/ml, dispensed into 1 ml aliquots and stored at −80° C.
# Membranes were thawed on ice, sonicated with 4 cycles of 20 pulses (50% amplitude, 0.5 pulse) (UP200S Hielscher) on ice, diluted in assay buffer (50 mM Tris-HCl (pH7.4), 5 mM MgCl2) to 62.5 μg/ml. Compound was serially diluted in DMSO before being diluted 1:10 with assay buffer. 5 μg of membrane in 80 μl of assay buffer was added per well of a 96 well polystyrene plate (Corning). […] of compound was added per well. The assay was initiated by the addition of 10 μl of 20 nM ^3H—NαMH per well and incubated for one hour at room temperature with shaking. Total binding was determined in the presence of 1% DMSO and non-specific binding was determined by the inclusion of 1 μM R-α-methyl-histamine (RαMH). Incubations were then filtered through filtermat A (Perkin Elmer) and washed three times with assay buffer. Filtermats were dried at 42° C. for two hours, scintillant added and the level of bound radioactivity determined.
# IC50 values for compounds were determined from seven point log scale dose-response studies and represent the concentration of compound required to inhibit 50% of the specific binding of 2 nM ^3H—NαMH (difference between total and non-specific binding). Curves were generated using the average of duplicate wells for each data point and analyzed using nonlinear regression of sigmoidal dose response (variable slope).
# T1 sequence (Q9Y5N1 whole entry): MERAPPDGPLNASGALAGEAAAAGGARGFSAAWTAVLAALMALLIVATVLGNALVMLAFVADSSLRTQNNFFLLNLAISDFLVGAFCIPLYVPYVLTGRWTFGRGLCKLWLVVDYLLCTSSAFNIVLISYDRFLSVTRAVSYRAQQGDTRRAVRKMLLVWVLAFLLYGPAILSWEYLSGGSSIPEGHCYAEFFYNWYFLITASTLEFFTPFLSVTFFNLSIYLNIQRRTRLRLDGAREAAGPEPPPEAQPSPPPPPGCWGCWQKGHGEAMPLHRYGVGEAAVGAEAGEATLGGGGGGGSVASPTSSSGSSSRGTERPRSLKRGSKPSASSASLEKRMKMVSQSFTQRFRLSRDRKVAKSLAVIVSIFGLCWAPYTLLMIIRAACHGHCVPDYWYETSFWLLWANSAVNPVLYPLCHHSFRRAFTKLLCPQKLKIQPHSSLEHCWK
row,pIC50,Structure (SMILES)
1,8.00,"CC(=O)N1CCC(C(O)Cc2ccc3c(c2)CCN(C2CCC2)CC3)CC1 (racemic) [Example 146, 1-(4-(2-(3-cyclobutyl-2,3,4,5-tetrahydro-1H-benzo[d]azepin-7-yl)-1-hydroxyethyl)piperidin-1-yl)ethanone]"
2,9.00,"O=C(NCc1ccc2c(c1)CCN(C1CCC1)CC2)c1cccnc1 [Example 120, N-((3-cyclobutyl-2,3,4,5-tetrahydro-1H-benzo[d]azepin-7-yl)methyl)nicotinamide]"
3,7.52,"CO/N=C(\CCc1ccccc1)c1ccc2c(c1)CCN(C1CCC1)CC2 [Example 131, 1-(3-cyclobutyl-2,3,4,5-tetrahydro-1H-benzo[d]azepin-7-yl)-3-phenylpropan-1-one O-methyl oxime]"
4,8.22,"O/N=C(\CCc1ccccc1)c1ccc2c(c1)CCN(C1CCC1)CC2 [Example 132, 1-(3-cyclobutyl-2,3,4,5-tetrahydro-1H-benzo[d]azepin-7-yl)-3-phenylpropan-1-one oxime]"
5,7.59,"Cn1nccc1CCC(O)c1ccc2c(c1)CCN(C1CCC1)CC2 (stereo not drawn) [Example 137, 1-(3-cyclobutyl-2,3,4,5-tetrahydro-1H-benzo[d]azepin-7-yl)-3-(1-methyl-1H-pyrazol-5-yl)propan-1-ol]"
6,7.62,"O=C(C1CCC1)N1CCC(O)(Cc2ccc3c(c2)CCN(C2CCC2)CC3)CC1 [Example 155, cyclobutyl(4-((3-cyclobutyl-2,3,4,5-tetrahydro-1H-benzo[d]azepin-7-yl)methyl)-4-hydroxypiperidin-1-yl)methanone]"
7,8.40,"Cc1nc(C)c(C(=O)NCc2ccc3c(c2)CCN(C2CCC2)CC3)s1 [Example 268, N-((3-cyclobutyl-2,3,4,5-tetrahydro-1H-benzo[d]azepin-7-yl)methyl)-2,4-dimethylthiazole-5-carboxamide]"
8,8.60,"O=C(NCc1ccc2c(c1)CCN(C1CCOC1)CC2)c1ccc(N2CCCC2)nc1 (stereo not drawn) [Example 269, 6-(pyrrolidin-1-yl)-N-((3-(tetrahydrofuran-3-yl)-2,3,4,5-tetrahydro-1H-benzo[d]azepin-7-yl)methyl)nicotinamide]"
9,8.05,"COc1ccc(NC(=O)Cc2ccc3c(c2)CCN(C2CCC2)CC3)cn1 [Example 274, 2-(3-cyclobutyl-2,3,4,5-tetrahydro-1H-benzo[d]azepin-7-yl)-N-(6-methoxypyridin-3-yl)acetamide]"
10,8.15,"COc1nc(C)c(C(=O)NCc2ccc3c(c2)CCN(C2CCC2)CC3)s1 [Example 275, N-((3-cyclobutyl-2,3,4,5-tetrahydro-1H-benzo[d]azepin-7-yl)methyl)-2-methoxy-4-methylthiazole-5-carboxamide]"
11,7.72,"Cc1nocc1C(=O)NCc1ccc2c(c1)CCN(C1CCC1)CC2 [Example 276, N-((3-cyclobutyl-2,3,4,5-tetrahydro-1H-benzo[d]azepin-7-yl)methyl)-3-methylisoxazole-4-carboxamide]"
12,9.52,"O=C(NCc1ccc2c(c1)CCN(C1CCC1)CC2)c1ccc(NCC2CC2)nc1 [Example 280, N-[(3-cyclobutyl-2,3,4,5-tetrahydro-1H-3-benzazepin-7-yl)methyl]-6-[(cyclopropylmethyl)amino]pyridine-3-carboxamide]"
13,9.10,"O=C(NCc1ccc2c(c1)CCN(C1CCC1)CC2)c1ccc(O[C@H]2CCOC2)nc1 [Example 281, N-[(3-cyclobutyl-2,3,4,5-tetrahydro-1H-3-benzazepin-7-yl)methyl]-6-[(3S)-tetrahydrofuran-3-yloxy]pyridine-3-carboxamide]"
14,9.00,"O=C(NCc1ccc2c(c1)CCN(C1CCC1)CC2)c1ccc(NC2CCOC2)nc1 (stereo not drawn) [Example 282, N-[(3-cyclobutyl-2,3,4,5-tetrahydro-1H-3-benzazepin-7-yl)methyl]-6-(tetrahydrofuran-3-ylamino)pyridine-3-carboxamide]"
15,9.00,"O=C(NCc1ccc2c(c1)CCN(C1CC(O)C1)CC2)c1ccc(N2CCCC2)nc1 (stereo not drawn) [Example 287, N-((3-(3-hydroxycyclobutyl)-2,3,4,5-tetrahydro-1H-benzo[d]azepin-7-yl)methyl)-6-(pyrrolidin-1-yl)nicotinamide]"
16,8.52,"C[C@H](O)CNc1ccc(C(=O)NCc2ccc3c(c2)CCN(C2CCC2)CC3)cn1 [Example 290, (S)—N-((3-cyclobutyl-2,3,4,5-tetrahydro-1H-benzo[d]azepin-7-yl)methyl)-6-(2-hydroxypropylamino)nicotinamide]"
17,8.10,"O=C(Cc1ccc2c(c1)CCN(C1CCC1)CC2)Nc1ccc(N2CCCC2)nc1 [Example 294, 2-(3-cyclobutyl-2,3,4,5-tetrahydro-1H-3-benzazepin-7-yl)-N-[6-(pyrrolidin-1-yl)pyridin-3-yl]acetamide]"
18,8.30,"O=C(NCc1ccc2c(c1)CCN(C1CCOC1)CC2)c1ccc(N2CC[C@H](F)C2)nc1 (stereo partly drawn) [Example 300, 6-((S)-3-fluoropyrrolidin-1-yl)-N-((3-(tetrahydrofuran-3-yl)-2,3,4,5-tetrahydro-1H-benzo[d]azepin-7-yl)methyl)nicotinamide]"
19,8.52,"CNc1ncc(C(=O)NCc2ccc3c(c2)CCN(C2CCC2)CC3)cn1 [Example 302, N-((3-cyclobutyl-2,3,4,5-tetrahydro-1H-benzo[d]azepin-7-yl)methyl)-2-(methylamino)pyrimidine-5-carboxamide]"
20,9.00,"CN(Cc1ccc2c(c1)CCN(C1CCC1)CC2)C(=O)c1cnc(N2CCCC2)nc1 [Example 313, N-((3-cyclobutyl-2,3,4,5-tetrahydro-1H-benzo[d]azepin-7-yl)methyl)-N-methyl-2-(pyrrolidin-1-yl)pyrimidine-5-carboxamide]"
21,8.70,"COCC(C)(C)Oc1ccc(C(=O)NCc2ccc3c(c2)CCN(C2CCC2)CC3)cn1 [Example 315, N-[(3-cyclobutyl-2,3,4,5-tetrahydro-1H-3-benzazepin-7-yl)methyl]-6-[(1-methoxy-2-methylpropan-2-yl)oxy]pyridine-3-carboxamide]"
22,9.05,"C[C@@H](O)CN(C)c1ccc(C(=O)NCc2ccc3c(c2)CCN(C2CCC2)CC3)cn1 [Example 316, (R)—N-((3-cyclobutyl-2,3,4,5-tetrahydro-1H-benzo[d]azepin-7-yl)methyl)-6-((2-hydroxypropyl)(methyl)amino)nicotinamide]"
23,7.21,"O=C(NCc1ccc2c(c1)CCN(C1CCC1)CC2)[C@H]1C[C@@H](OC2CCOCC2)C1 [Example 319, cis-N-((3-cyclobutyl-2,3,4,5-tetrahydro-1H-benzo[d]azepin-7-yl)methyl)-3-(tetrahydro-2H-pyran-4-yloxy)cyclobutanecarboxamide]"

# Molecular target: T1, human H3 receptor
# Experiment: In vitro H3 functional assay (cAMP response element driven luciferase reporter)
# Format: cell-based
# Settings: CHO(dhfr+)-cre-luc cells expressing human H3 receptor; RαMH 10 nM, forskolin 1 μM; read-out: hH3 functional IC50
# Method: The functional activity of compounds at the H3 receptor was determined by measuring changes in the level of intracellular cAMP using a cAMP response element driven luciferase reporter assay. The changes in luciferase expression were monitored by a luminescence plate reader, Analyst HT (MDS Analytical). Increases in intracellular cAMP were readily detected upon activation of protein kinase A by forskolin (Sigma) and suppression of this response observed with the application of the H3 receptor agonist RαMH (Sigma).
# CHO(dhfr^+)-cre-luc cells stably expressing human H3 receptor were routinely grown as monolayers in Minimal Essential Medium α (MEMα) (Invitrogen) supplemented with 10% dialysed FBS (Hyclone), in 5% CO2 at 37° C. 48 hours prior to assay, cells were seeded in clear-base white walled 384-well plates (Corning) at a density of 5000 cells/well. On the day of assay, growth media was removed and replaced with […] of assay buffer (MEMα, 5 mg/ml fatty acid free BSA (Sigma)) per well. Cells were then incubated for 30 minutes at 37° C., 5% CO2. Compound was serially diluted in DMSO before being diluted 1:10 with assay buffer. 2.5 of compound diluted in assay buffer was added and cells incubated for 5 minutes at 37° C., 5% CO2. 2.5 μl of each reagent was then added in the following order: RαMH (10 nM), isobutylmethylxanthine (1-methyl-3-(2-methylpropyl)-7H-purine-2,6-dione; IBMX) (500 μM) (Sigma) and forskolin (1 μM). Cells were then incubated for 90 minutes at 37° C., 5% CO2, followed by 30 minutes at room temperature. At the end of incubation 25 μl of Steadylite reagent (Perkin Elmer) was added, plates were sealed and placed on a shaker for 5 minutes. The level of light output to determine the level of luciferase expression was then measured.
# IC50 values for compounds were determined from ten point half log scale dose-response studies and represent the concentration of compound required to […] 50% inhibition of forskolin stimulated cells in the presence of RαMH alone. Curves were generated using the average of duplicate wells for each data point and analyzed using nonlinear regression of four parameter dose response.
row,pIC50,Structure (SMILES)
1,8.00,"CC(=O)N1CCC(C(O)Cc2ccc3c(c2)CCN(C2CCC2)CC3)CC1 (racemic) [Example 146, 1-(4-(2-(3-cyclobutyl-2,3,4,5-tetrahydro-1H-benzo[d]azepin-7-yl)-1-hydroxyethyl)piperidin-1-yl)ethanone]"
